Laboratory results taken from ChEMBL document CHEMBL4507321 (2021).
Blank lines part the entries; values can stand above or below the compound they belong to. Active and inactive are the calls of the source. The calls are words filed in the database; no cut-off is given here.

Legend:
[1] = biological target: 5-hydroxytryptamine receptor 1D (Homo sapiens) (UniProt P28221); details: Compound concentration 10.0 uM
[2] = biological target: Histamine H2 receptor (Homo sapiens) (UniProt P25021); details: Compound concentration 10.0 uM
[3] = biological target: T1, GABA-A receptor; anion channel (Rattus norvegicus) (UniProt O09028+P15431+P18506+P18508+P19969+P20236+P23574+P23576+P28471+P28473+P30191+P62813+P63079+P63138+Q91ZM7+Q9ES14); details: Compound concentration 10.0 uM
Rattus norvegicus = organism: Rattus norvegicus; details: Compound concentration 10.0 uM
[4] = biological target: Histamine H1 receptor (Homo sapiens) (UniProt P35367); details: Compound concentration 10.0 uM
[5] = biological target: Muscarinic acetylcholine receptor M5 (Homo sapiens) (UniProt P08912); details: Compound concentration 10.0 uM
[6] = biological target: 5-hydroxytryptamine receptor 7 (Homo sapiens) (UniProt P34969); details: Compound concentration 10.0 uM
[7] = biological target: Delta-type opioid receptor (Homo sapiens) (UniProt P41143); details: Compound concentration 10.0 uM
[8] = biological target: Kappa-type opioid receptor (Homo sapiens) (UniProt P41145); details: Compound concentration 10.0 uM
[9] = biological target: Muscarinic acetylcholine receptor M2 (Homo sapiens) (UniProt P08172); details: Compound concentration 10.0 uM
[10] = biological target: 5-hydroxytryptamine receptor 1E (Homo sapiens) (UniProt P28566); details: Compound concentration 10.0 uM
[11] = biological target: Alpha-1D adrenergic receptor (Homo sapiens) (UniProt P25100); details: Compound concentration 10.0 uM
EMRK1184 = assay: Proliferation assay with EMRK1184 lymphoma cells; assay type: functional, cell-based; details: Mus musculus
[12] = biological target: 5-hydroxytryptamine receptor 2A (Homo sapiens) (UniProt P28223); details: Compound concentration 10.0 uM
[13] = biological target: Mu-type opioid receptor (Homo sapiens) (UniProt P35372); details: Compound concentration 10.0 uM
[14] = biological target: Muscarinic acetylcholine receptor M4 (Homo sapiens) (UniProt P08173); details: Compound concentration 10.0 uM
[15] = biological target: Alpha-1B adrenergic receptor (Homo sapiens) (UniProt P35368); details: Compound concentration 10.0 uM
[16] = biological target: 5-hydroxytryptamine receptor 2B (Homo sapiens) (UniProt P41595); details: Compound concentration 10.0 uM
[17] = biological target: D(1B) dopamine receptor (Homo sapiens) (UniProt P21918); details: Compound concentration 10.0 uM
[18] = biological target: 5-hydroxytryptamine receptor 1A (Homo sapiens) (UniProt P08908); details: Compound concentration 10.0 uM
[19] = biological target: Alpha-2C adrenergic receptor (Homo sapiens) (UniProt P18825); details: Compound concentration 10.0 uM
[20] = biological target: 5-hydroxytryptamine receptor 3A (Homo sapiens) (UniProt P46098); details: Compound concentration 10.0 uM
[21] = biological target: Sigma non-opioid intracellular receptor 1 (Homo sapiens) (UniProt Q99720); details: Compound concentration 10.0 uM
[22] = biological target: Alpha-1A adrenergic receptor (Homo sapiens) (UniProt P35348); details: Compound concentration 10.0 uM
[23] = biological target: D(2) dopamine receptor (Homo sapiens) (UniProt P14416); details: Compound concentration 10.0 uM
[24] = biological target: Beta-3 adrenergic receptor (Homo sapiens) (UniProt P13945); details: Compound concentration 10.0 uM
[25] = biological target: 5-hydroxytryptamine receptor 5A (Homo sapiens) (UniProt P47898); details: Compound concentration 10.0 uM
[26] = biological target: 5-hydroxytryptamine receptor 2C (Homo sapiens) (UniProt P28335); details: Compound concentration 10.0 uM
[27] = biological target: T1, GABA-A receptor; anion channel (Rattus norvegicus); details: Compound concentration 10.0 uM; remark: listed apart in the source
[28] = biological target: Sigma intracellular receptor 2 (Homo sapiens) (UniProt Q5BJF2); details: Compound concentration 10.0 uM
[29] = biological target: Beta-2 adrenergic receptor (Homo sapiens) (UniProt P07550); details: Compound concentration 10.0 uM
[30] = biological target: Beta-1 adrenergic receptor (Homo sapiens) (UniProt P08588); details: Compound concentration 10.0 uM
[31] = biological target: Muscarinic acetylcholine receptor M1 (Homo sapiens) (UniProt P11229); details: Compound concentration 10.0 uM
[32] = biological target: D(4) dopamine receptor (Homo sapiens) (UniProt P21917); details: Compound concentration 10.0 uM
[33] = biological target: 5-hydroxytryptamine receptor 1B (Homo sapiens) (UniProt P28222); details: Compound concentration 10.0 uM
MEF = assay: Cell growth of Fucci MEFs; assay type: functional, Mus musculus; details: Assay publication PMID: 30069049; Compound concentration 1 uM
[34] = biological target: Alpha-2B adrenergic receptor (Homo sapiens) (UniProt P18089); details: Compound concentration 10.0 uM
[35] = biological target: D(3) dopamine receptor (Homo sapiens) (UniProt P35462); details: Compound concentration 10.0 uM
[36] = biological target: Histamine H4 receptor (Homo sapiens) (UniProt Q9H3N8); details: Compound concentration 10.0 uM
[37] = biological target: D(1A) dopamine receptor (Homo sapiens) (UniProt P21728); details: Compound concentration 10.0 uM
[38] = biological target: Sodium-dependent serotonin transporter (Homo sapiens) (UniProt P31645); details: Compound concentration 10.0 uM
[39] = biological target: Sodium-dependent noradrenaline transporter (Homo sapiens) (UniProt P23975); details: Compound concentration 10.0 uM
[40] = biological target: T2, Sodium-dependent dopamine transporter (Homo sapiens, UniProt Q01959); details: Compound concentration 10.0 uM
[41] = biological target: Histamine H3 receptor (Homo sapiens) (UniProt Q9Y5N1); details: Compound concentration 10.0 uM
[42] = biological target: Alpha-2A adrenergic receptor (Homo sapiens, UniProt P08913); assay: GPCRScan assay: inhibition of Alpha2A; parameters: radioligand conc. used [nm] 1.0 – 3.0, parental cells stable MDCK
[43] = biological target: Alpha-2A adrenergic receptor (Homo sapiens) (UniProt P08913); details: Compound concentration 10.0 uM
[44] = biological target: T2, Sodium-dependent dopamine transporter; assay: GPCRScan assay: inhibition of DAT; parameters: radioligand conc. used [nm] 3.6 – 16.0, parental cells stable HEK
[45] = biological target: Methionine aminopeptidase 2 (Homo sapiens, UniProt P50579); assay: Biochemical activity-MetAP2 using Co
[46] = biological target: 5-hydroxytryptamine receptor 6 (Homo sapiens) (UniProt P50406); details: Compound concentration 10.0 uM
[47] = biological target: Muscarinic acetylcholine receptor M3 (Homo sapiens) (UniProt P20309); details: Compound concentration 10.0 uM

T2 sequence (Q01959 whole entry): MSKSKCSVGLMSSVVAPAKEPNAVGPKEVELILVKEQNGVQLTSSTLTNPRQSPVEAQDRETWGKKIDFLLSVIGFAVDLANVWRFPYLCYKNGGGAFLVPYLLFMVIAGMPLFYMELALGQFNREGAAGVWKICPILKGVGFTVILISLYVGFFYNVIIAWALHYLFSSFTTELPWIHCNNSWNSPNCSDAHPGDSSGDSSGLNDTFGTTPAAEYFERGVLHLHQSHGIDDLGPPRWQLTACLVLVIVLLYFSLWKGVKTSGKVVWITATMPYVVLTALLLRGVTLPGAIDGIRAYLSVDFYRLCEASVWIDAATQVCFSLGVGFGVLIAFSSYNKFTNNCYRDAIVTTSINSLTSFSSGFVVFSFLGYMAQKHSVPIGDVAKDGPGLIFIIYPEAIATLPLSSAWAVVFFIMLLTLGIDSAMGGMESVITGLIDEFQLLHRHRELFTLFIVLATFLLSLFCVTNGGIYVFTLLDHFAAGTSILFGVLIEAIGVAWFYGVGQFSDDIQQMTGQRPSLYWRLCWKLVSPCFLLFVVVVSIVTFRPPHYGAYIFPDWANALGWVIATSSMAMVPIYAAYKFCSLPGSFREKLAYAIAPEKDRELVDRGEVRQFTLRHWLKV
Chain of Histamine H2 receptor (Homo sapiens) (P25021 whole entry): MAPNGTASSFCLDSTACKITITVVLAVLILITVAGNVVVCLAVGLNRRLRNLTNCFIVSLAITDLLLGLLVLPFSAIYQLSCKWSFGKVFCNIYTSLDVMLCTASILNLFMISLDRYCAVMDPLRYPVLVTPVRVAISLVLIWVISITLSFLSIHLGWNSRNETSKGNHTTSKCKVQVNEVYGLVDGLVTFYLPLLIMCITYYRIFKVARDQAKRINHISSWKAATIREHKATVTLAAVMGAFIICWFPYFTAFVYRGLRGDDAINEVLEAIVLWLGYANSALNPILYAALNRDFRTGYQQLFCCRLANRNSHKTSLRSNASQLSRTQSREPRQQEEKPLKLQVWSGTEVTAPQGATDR
Chain of Alpha-1B adrenergic receptor (Homo sapiens) (P35368 whole entry): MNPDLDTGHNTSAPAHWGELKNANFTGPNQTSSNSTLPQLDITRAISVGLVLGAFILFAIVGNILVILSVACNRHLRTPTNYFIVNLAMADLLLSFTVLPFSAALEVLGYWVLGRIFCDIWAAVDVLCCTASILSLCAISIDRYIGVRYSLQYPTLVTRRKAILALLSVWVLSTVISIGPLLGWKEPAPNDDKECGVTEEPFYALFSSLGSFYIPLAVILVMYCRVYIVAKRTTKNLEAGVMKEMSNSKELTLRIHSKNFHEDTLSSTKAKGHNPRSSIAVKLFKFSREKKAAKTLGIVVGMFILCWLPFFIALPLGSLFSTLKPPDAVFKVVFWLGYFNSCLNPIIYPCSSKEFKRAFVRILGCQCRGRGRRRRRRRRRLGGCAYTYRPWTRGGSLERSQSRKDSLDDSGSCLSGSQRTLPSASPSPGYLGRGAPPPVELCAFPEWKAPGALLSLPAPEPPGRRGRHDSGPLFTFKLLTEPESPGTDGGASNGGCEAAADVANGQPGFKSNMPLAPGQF
Chain of Beta-1 adrenergic receptor (Homo sapiens) (P08588 whole entry, looked up): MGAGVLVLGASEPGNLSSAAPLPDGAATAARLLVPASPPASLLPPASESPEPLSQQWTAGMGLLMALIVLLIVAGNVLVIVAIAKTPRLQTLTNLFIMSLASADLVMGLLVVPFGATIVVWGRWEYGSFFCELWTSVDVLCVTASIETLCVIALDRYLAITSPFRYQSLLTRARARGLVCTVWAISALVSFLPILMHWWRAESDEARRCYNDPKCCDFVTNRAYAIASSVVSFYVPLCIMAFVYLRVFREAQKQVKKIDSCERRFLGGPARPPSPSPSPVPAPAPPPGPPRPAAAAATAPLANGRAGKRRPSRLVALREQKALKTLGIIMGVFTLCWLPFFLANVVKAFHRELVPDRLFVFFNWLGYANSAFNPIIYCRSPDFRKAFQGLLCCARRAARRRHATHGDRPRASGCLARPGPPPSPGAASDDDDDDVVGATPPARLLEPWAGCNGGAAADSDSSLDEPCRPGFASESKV
Chain of D(3) dopamine receptor (Homo sapiens) (P35462 whole entry): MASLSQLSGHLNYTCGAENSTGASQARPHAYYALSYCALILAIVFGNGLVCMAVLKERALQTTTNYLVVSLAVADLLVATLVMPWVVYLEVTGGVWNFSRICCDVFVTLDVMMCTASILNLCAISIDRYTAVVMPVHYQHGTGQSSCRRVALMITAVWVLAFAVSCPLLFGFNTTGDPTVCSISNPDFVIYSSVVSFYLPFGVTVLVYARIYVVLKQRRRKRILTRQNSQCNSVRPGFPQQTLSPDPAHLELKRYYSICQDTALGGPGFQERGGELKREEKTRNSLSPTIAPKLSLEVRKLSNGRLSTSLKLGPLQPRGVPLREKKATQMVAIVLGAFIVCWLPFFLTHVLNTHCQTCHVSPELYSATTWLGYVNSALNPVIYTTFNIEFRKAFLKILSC
Chain of Muscarinic acetylcholine receptor M1 (Homo sapiens) (P11229 whole entry): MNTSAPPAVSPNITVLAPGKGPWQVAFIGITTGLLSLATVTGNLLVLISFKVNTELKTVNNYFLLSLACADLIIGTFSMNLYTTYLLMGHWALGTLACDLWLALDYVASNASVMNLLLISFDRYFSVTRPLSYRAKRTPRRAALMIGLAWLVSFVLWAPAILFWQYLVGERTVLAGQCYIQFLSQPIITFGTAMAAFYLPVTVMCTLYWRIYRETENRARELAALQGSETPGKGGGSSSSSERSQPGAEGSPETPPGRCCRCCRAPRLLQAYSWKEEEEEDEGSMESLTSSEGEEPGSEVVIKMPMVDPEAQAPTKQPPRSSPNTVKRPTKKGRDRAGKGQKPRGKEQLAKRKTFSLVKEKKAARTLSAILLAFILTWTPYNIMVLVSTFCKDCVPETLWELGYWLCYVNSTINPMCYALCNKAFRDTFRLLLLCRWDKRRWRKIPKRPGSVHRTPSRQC
Chain of 5-hydroxytryptamine receptor 2B (Homo sapiens) (P41595 whole entry): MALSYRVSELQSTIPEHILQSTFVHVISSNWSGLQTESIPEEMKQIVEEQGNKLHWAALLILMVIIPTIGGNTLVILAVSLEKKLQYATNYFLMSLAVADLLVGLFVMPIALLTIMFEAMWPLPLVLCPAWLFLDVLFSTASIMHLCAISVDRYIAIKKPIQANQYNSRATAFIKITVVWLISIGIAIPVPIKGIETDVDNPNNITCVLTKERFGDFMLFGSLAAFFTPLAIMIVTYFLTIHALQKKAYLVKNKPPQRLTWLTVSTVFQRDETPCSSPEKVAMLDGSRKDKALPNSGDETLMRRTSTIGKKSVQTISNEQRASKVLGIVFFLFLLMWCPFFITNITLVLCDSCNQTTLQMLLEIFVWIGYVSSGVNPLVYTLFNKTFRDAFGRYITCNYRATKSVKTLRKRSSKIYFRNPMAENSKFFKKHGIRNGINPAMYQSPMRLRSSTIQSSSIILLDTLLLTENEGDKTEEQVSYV
Chain of D(1B) dopamine receptor (Homo sapiens) (P21918 whole entry): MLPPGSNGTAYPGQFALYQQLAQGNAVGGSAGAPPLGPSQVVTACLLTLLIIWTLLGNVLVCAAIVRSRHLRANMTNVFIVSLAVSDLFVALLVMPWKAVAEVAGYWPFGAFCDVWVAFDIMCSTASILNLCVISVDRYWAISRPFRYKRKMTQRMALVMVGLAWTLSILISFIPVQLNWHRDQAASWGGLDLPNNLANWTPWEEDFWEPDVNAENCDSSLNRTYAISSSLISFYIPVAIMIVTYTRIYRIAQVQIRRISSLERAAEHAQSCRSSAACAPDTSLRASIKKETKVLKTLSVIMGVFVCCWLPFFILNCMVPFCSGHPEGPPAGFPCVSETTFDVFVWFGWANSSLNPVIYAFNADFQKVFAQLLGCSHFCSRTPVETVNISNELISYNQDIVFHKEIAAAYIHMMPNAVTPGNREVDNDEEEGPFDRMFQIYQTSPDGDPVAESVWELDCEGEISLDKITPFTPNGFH
Chain of Alpha-1A adrenergic receptor (Homo sapiens) (P35348 whole entry): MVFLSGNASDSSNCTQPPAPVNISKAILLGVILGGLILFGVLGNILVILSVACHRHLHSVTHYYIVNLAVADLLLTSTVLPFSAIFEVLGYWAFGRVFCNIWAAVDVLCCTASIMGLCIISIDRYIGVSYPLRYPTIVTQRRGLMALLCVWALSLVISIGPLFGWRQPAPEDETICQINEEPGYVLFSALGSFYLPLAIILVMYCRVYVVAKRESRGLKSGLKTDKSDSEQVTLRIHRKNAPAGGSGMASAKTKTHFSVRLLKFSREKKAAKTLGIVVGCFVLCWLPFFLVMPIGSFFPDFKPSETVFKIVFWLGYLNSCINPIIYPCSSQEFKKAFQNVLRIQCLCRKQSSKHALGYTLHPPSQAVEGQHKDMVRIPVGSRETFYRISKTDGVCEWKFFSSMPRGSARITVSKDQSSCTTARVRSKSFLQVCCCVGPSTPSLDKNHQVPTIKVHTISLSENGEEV
Chain of Kappa-type opioid receptor (Homo sapiens) (P41145 whole entry): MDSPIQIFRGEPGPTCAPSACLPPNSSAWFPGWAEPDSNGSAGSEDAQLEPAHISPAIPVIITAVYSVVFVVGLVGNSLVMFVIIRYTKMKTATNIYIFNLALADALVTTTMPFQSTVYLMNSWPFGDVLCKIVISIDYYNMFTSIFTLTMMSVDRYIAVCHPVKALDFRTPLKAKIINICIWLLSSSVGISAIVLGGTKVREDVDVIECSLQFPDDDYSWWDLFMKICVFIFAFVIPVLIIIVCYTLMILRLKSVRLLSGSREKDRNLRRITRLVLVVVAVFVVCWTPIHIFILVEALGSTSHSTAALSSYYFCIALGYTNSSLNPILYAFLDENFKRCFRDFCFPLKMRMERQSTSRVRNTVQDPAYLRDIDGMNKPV
Chain of Sigma non-opioid intracellular receptor 1 (Homo sapiens) (Q99720 whole entry): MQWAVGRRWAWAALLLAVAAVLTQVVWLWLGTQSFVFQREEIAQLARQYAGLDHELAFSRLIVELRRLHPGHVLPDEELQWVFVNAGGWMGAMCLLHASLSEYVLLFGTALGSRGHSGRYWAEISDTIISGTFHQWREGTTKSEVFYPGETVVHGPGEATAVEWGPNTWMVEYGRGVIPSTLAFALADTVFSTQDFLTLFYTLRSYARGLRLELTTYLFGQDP

- inhibition [1]: -0.66%
- inhibition [2]: 5.32%
- inhibition [3]: 11.7%
- inhibition (Rattus norvegicus): 47%
- inhibition [4]: -8.33%
- inhibition [5]: -8.87%
- inhibition [6]: -3.75%
- inhibition [7]: 20.6%
- inhibition [8]: 5.23%
- inhibition [9]: 15.9%
- inhibition [10]: 13.8%
- inhibition [11]: 3.2%
- inhibition [12]: -7.37%
- inhibition [13]: 3.45%
- inhibition [14]: 20.4%
- inhibition [15]: 7.18%
- inhibition [16]: 2.94%
- inhibition [17]: 4.57%
- inhibition [18]: 16%
- inhibition [19]: 10.2%
- inhibition [20]: 32.9%
- inhibition [21]: 35.7%
- inhibition [22]: 9.59%
- inhibition [23]: 79.6%
- inhibition [24]: 16.3%
- inhibition [25]: -9.77%
- inhibition [26]: 6.46%
- inhibition [27]: 75.7%
- inhibition [28]: 19.9%
- inhibition [29]: 13.2%
- inhibition [30]: -0.13%
- inhibition [31]: 0.14%
- inhibition [32]: 23.8%
- inhibition [33]: 13.6%
- inhibition [34]: -3.78%
- inhibition [35]: 4.97%
- inhibition [36]: -2.44%
- inhibition [37]: -3.67%
SMILES: O=C(NNS(=O)(=O)c1ccccc1F)c1cc(F)cc(-c2ccccn2)c1 [WM-1119]
- IC50 (EMRK1184): 0.25 µM (active)
- Cell cycle effect (MEF): 0

- inhibition [38]: 6.15%
- inhibition [2]: -5.93%
- inhibition [3]: 4.55%
- inhibition (Rattus norvegicus): -3.6%
- inhibition [4]: -2.04%
- inhibition [39]: -2.4%
- inhibition [40]: 80.2%
- inhibition [6]: -1.87%
- inhibition [7]: 7.99%
- inhibition [8]: -5.1%
- inhibition [9]: -5.57%
- inhibition [10]: 13.1%
- inhibition [11]: 17.4%
- inhibition [12]: 11.8%
- inhibition [41]: 15.5%
- inhibition [13]: 26.1%
- Ki [42]: > 10 µM
- pKi [42]: < 5
- inhibition [43]: 68.5%
- inhibition [15]: -3.44%
- Ki [44]: > 10 µM
- pKi [44]: < 5
- inhibition [16]: 40.1%
- inhibition [17]: 5.79%
- inhibition [18]: 23.1%
- inhibition [19]: -5.42%
- IC50 [45]: > 50 µM (not active)
- inhibition [20]: 4.55%
- inhibition [21]: 19.1%
- inhibition [22]: 18.6%
- inhibition [23]: 14.7%
- inhibition [46]: 2.65%
- inhibition [25]: -0.06%
- inhibition [26]: 7.81%
- inhibition [27]: 34.6%
- inhibition [28]: 40.1%
- inhibition [29]: 10.4%
- inhibition [30]: 11.2%
- inhibition [31]: 43.3%
- inhibition [32]: 9.83%
- inhibition [33]: 11%
- inhibition [34]: 3.07%
- inhibition [35]: -8.61%
- inhibition [37]: 8.58%
- inhibition [47]: 13%
SMILES: O=C(NNS(=O)(=O)c1ccccc1)c1cc(-c2ccnnc2)ccc1F [WM-2474]
- Cell cycle effect (MEF): 0
